Experimental data taken from patent US11773109B2, “Composition for hardening soft tissue” (The Catholic University of Korea Industry—Academic …, priority 2016, dated 2023).

How the values were obtained:
pancreas of mice [1] = assay: Hardness (elastic modulus) of the mouse pancreas after treatment, hardness meter (Venustron); type: in vivo; conditions: mouse pancreas treated with 1 mM of compound; compared to control (PBS / untreated); result in words
Procedure: The measurement of the hardness according to the present invention is performed using a hardness meter, and measurement of the hardness of the pancreas is performed by measuring elastic modulus (EM) based on the Hooke's law and the Hertz's contact stress theory. The EM is a measure of the stiffness of an elastic material, and is expressed as the ratio of “the stress along the axis” and “the total strain along the axis within the range of the stress” by the Hooke's law.
(§1) More specifically, three mice were treated with 1 mM of each of the antibiotics shown above, and three mice were treated with phosphate buffered saline (PBS) as a control.
(1) Measurement of Hardness
In order to measure the resistance of the pancreas using a hardness meter, the elastic modulus (EM) of the dissected pancreas was measured using Venustron (Axiom, Koriyama, Japan) based on the Hooke's law and the Hertz's contract stress theory, and the resistance of the pancreas was calculated using the following equation: […]
(F, force; v, Poisson's ratio; t, variant of compression; r, the diameter of a rigid spherical probe that presses an object vertically)

pancreas of mice [2] = assay: Tension (suture-holding capacity) of the mouse pancreas after treatment, Newton dynamometer; type: in vivo; conditions: mouse pancreas treated with 1 mM of compound; for change in the tension of the pancreas compared to the control: compared to control (PBS / untreated), result in words; for response vs control in vivo at 1000 µM: fold of control, read-out: increase of the tension of the pancreas compared to the control
Procedure: Specifically, it means a force which occurs in an organ in response to an external force exerted by stretching or pulling action. The measurement of the tension according to the present invention is performed using a dynamometer. More specifically, the tension is determined by measuring suture-holding capacity using a Newton dynamometer. At this time, the tension is calculated by adding the weight of the tissue.
as §1
(2) Measurement of Tensile
The tension of the pancreas was measured using a dynamometer. Specifically, a pancreatic fragment having a size of 1×1×1.5 cm was prepared, and then silk 4-0 suture was passed through the tissue to form a knob, and suture-holding capacity was measured using a Newton dynamometer. At this time, the tension was calculated by adding the weight of the tissue.

Row | SMILES | change in the hardness of the pancreas compared to the control (pancreas of mice [1]) | change in the tension of the pancreas compared to the control (pancreas of mice [2]) | response vs control in vivo at 1000 µM (pancreas of mice [2]) [%]
1 | Oc1c(I)cc(I)c2cccnc12 [KRP-00004, 5,7-diiodo-8-hydroxyquinoline] | increased both the hardness and tension | increased both the hardness and tension | ≥ 150
2 | O=C(O)c1cc(O)c2cccc(O)c2n1 [KRP-00005, 4,8-dihydroxyquinoline-2-carboxylic acid] | increased both the hardness and tension | increased both the hardness and tension | ≥ 150
3 | Cc1cc(O)c2ccccc2n1 [KRP-00006, 4-hydroxy-2-methylquinoline] | increased both the hardness and tension | increased both the hardness and tension | 
4 | O=C(O)c1cnc2cc(C(F)(F)F)ccc2c1O [KRP-00009, 4-hydroxy-7-trifluoromethyl-3-quinolinecarboxylic acid] | increased both the hardness and tension | increased both the hardness and tension | ≥ 150
5 | Oc1ccnc2ccccc12 [KRP-00012, 4-hydroxyquinoline] | increased both the hardness and tension | increased both the hardness and tension | ≥ 150
6 | Oc1ccc2ncccc2c1 [KRP-00013, 6-hydroxyquinoline] | increased both the hardness and tension | increased both the hardness and tension | ≥ 150
7 | Oc1ccc2ccccc2n1 [KRP-00014, 2-hydroxyquinoline] | increased both the hardness and tension | increased both the hardness and tension | ≥ 150
8 | O=C(O)c1ccc2cccnc2c1O [KRP-00016, 8-hydroxyquinoline-7-carboxylic acid] | increased both the hardness and tension | increased both the hardness and tension | ≥ 150
